Assay results published in patent US20070128217A1 (priority 2003, published 2007).

Tests used:
[1] = tested on: recombinant human anti-SARS-CoV antibody 03-018; format: binding; parameters: Binding of antibody 03-018 to linear peptides of the N protein of SARS-CoV Urbani / Binding of antibody 03-018 to looped/cyclic peptides of the N protein of SARS-CoV Urbani: unit not given here
[2] = tested on: rabbit serum obtained by immunizing a rabbit with the SARS-CoV strain Frankfurt 1; format: binding; parameters: Binding of a rabbit serum to linear peptides / Binding of a rabbit serum to looped peptides / Rabbit serum linear peptides / Rabbit serum looped peptides / Binding of a rabbit serum to linear peptides of protein N of SARS-CoV Urbani (Rabbit serum linear peptides) / Binding of a rabbit serum to looped/cyclic peptides of protein N of SARS-CoV Urbani (Rabbit serum looped peptides): unit not given here
[3] = tested on: control sera (pooled serum of ten healthy LUMC hospital workers; commercial negative donor pooled serum from the Dutch bloodbank); format: binding, human

Sequence: AATVLQLPQGTTLPK
- Binding of antibody 03-018 to linear peptides of the N protein of SARS-CoV Urbani [1]: 0.1
- Binding of antibody 03-018 to looped/cyclic peptides of the N protein of SARS-CoV Urbani [1]: 0.2
- Binding of a rabbit serum to linear peptides of protein N of SARS-CoV Urbani (Rabbit serum linear peptides) [2]: 0.3
- Binding of a rabbit serum to looped/cyclic peptides of protein N of SARS-CoV Urbani (Rabbit serum looped peptides) [2]: 1.2

Sequence: LDDKDPQFKDNVILL
- Binding of antibody 03-018 to linear peptides of the N protein of SARS-CoV Urbani [1]: 0.1
- Binding of antibody 03-018 to looped/cyclic peptides of the N protein of SARS-CoV Urbani [1]: 0.3
- Binding of a rabbit serum to linear peptides of protein N of SARS-CoV Urbani (Rabbit serum linear peptides) [2]: 0.1
- Binding of a rabbit serum to looped/cyclic peptides of protein N of SARS-CoV Urbani (Rabbit serum looped peptides) [2]: 0.2

Sequence: IKLDDKDPQFKDNVI
- Binding of antibody 03-018 to linear peptides of the N protein of SARS-CoV Urbani [1]: 0.1
- Binding of antibody 03-018 to looped/cyclic peptides of the N protein of SARS-CoV Urbani [1]: 0.2
- Binding of a rabbit serum to linear peptides of protein N of SARS-CoV Urbani (Rabbit serum linear peptides) [2]: 0.1
- Binding of a rabbit serum to looped/cyclic peptides of protein N of SARS-CoV Urbani (Rabbit serum looped peptides) [2]: 0.3
- Control Serum Blood-Bank Looped peptides [3]: 0.6
- Control serum Blood-bank linear peptides [3]: 0.9
- Control serum LUMC linear peptides [3]: 0.9
- Control serum LUMC looped peptides [3]: 0.6

Sequence: KDPQFKDNVILLNKH
- Binding of antibody 03-018 to linear peptides of the N protein of SARS-CoV Urbani [1]: 0.1
- Binding of antibody 03-018 to looped/cyclic peptides of the N protein of SARS-CoV Urbani [1]: 0.2
- Binding of a rabbit serum to linear peptides of protein N of SARS-CoV Urbani (Rabbit serum linear peptides) [2]: 0.2
- Binding of a rabbit serum to looped/cyclic peptides of protein N of SARS-CoV Urbani (Rabbit serum looped peptides) [2]: 0.5

Sequence: PQFKDNVILLNKHID
- Binding of antibody 03-018 to linear peptides of the N protein of SARS-CoV Urbani [1]: 0.1
- Binding of antibody 03-018 to looped/cyclic peptides of the N protein of SARS-CoV Urbani [1]: 0.2
- Binding of a rabbit serum to linear peptides of protein N of SARS-CoV Urbani (Rabbit serum linear peptides) [2]: 0.2
- Binding of a rabbit serum to looped/cyclic peptides of protein N of SARS-CoV Urbani (Rabbit serum looped peptides) [2]: 0.4
- Control Serum Blood-Bank Looped peptides [3]: 0.7
- Control serum Blood-bank linear peptides [3]: 0.7
- Control serum LUMC linear peptides [3]: 0.7
- Control serum LUMC looped peptides [3]: 0.8

Sequence: QFKDNVILLNKHIDA
- Binding of antibody 03-018 to linear peptides of the N protein of SARS-CoV Urbani [1]: 0.1
- Binding of antibody 03-018 to looped/cyclic peptides of the N protein of SARS-CoV Urbani [1]: 0.3
- Binding of a rabbit serum to linear peptides of protein N of SARS-CoV Urbani (Rabbit serum linear peptides) [2]: 0.1
- Binding of a rabbit serum to looped/cyclic peptides of protein N of SARS-CoV Urbani (Rabbit serum looped peptides) [2]: 0.7
- Control Serum Blood-Bank Looped peptides [3]: 0.9
- Control serum Blood-bank linear peptides [3]: 0.6
- Control serum LUMC linear peptides [3]: 0.6
- Control serum LUMC looped peptides [3]: 0.8
